This passage reports IC50 results from BindingDB's records for doi:10.1016/S0960-894X(96)00609-9 (1997).

The target of one assay is Gastrin/cholecystokinin type B receptor (Cavia porcellus). In words: Inhibition of [125I]Cholecystokinin-8 binding to Cholecystokinin type B receptor of guinea pig cerebral cortical membranes.
The IC50 is the concentration that gives 50% inhibition. A higher IC50 goes with a need for much substance. Take `CC(=O)c1cccc(NC(=O)NC2N=C(c3ccccc3F)c3cccc(C)c3N(CC(=O)N3CC4CCC(CC4)C3)C2=O)c1` (centres undefined) [1-(3-Acetyl-phenyl)-3-[1-[2-(3-aza-bicyclo[3.2.2]non-3-yl)-2-oxo-ethyl]-5-(2-fluoro-phenyl)-9-methyl-2-oxo-2,3-dihydro-1H-benzo[e][1,4]diazepin-3-yl]-urea]: the IC50 worked out at 0.84 nM.
Same read-out and setting: the result for `Cc1cccc2c1N(CC(=O)N1CC3CCC(CC3)C1)C(=O)C(NC(=O)Nc1cccc(Br)c1)N=C2c1ccccc1F` (centres undefined) [1-[1-[2-(3-Aza-bicyclo[3.2.2]non-3-yl)-2-oxo-ethyl]-5-(2-fluoro-phenyl)-9-methyl-2-oxo-2,3-dihydro-1H-benzo[e][1,4]diazepin-3-yl]-3-(3-bromo-phenyl)-urea] reads 1.8 nM.
`Cc1cccc2c1N(CC(=O)N1CC3CCC(CC3)C1)C(=O)C(NC(=O)Nc1cccc(Cl)c1)N=C2c1ccccc1F` (centres undefined) [1-[1-[2-(3-Aza-bicyclo[3.2.2]non-3-yl)-2-oxo-ethyl]-5-(2-fluoro-phenyl)-9-methyl-2-oxo-2,3-dihydro-1H-benzo[e][1,4]diazepin-3-yl]-3-(3-chloro-phenyl)-urea] had a half-inhibitory concentration (IC50) of 2 nM.
Same read-out and setting: the result for `COc1cccc(NC(=O)NC2N=C(c3ccccc3F)c3cccc(C)c3N(CC(=O)N3CC4CCC(CC4)C3)C2=O)c1` (centres undefined) [1-[1-[2-(3-Aza-bicyclo[3.2.2]non-3-yl)-2-oxo-ethyl]-5-(2-fluoro-phenyl)-9-methyl-2-oxo-2,3-dihydro-1H-benzo[e][1,4]diazepin-3-yl]-3-(3-methoxy-phenyl)-urea] reads 1 nM; that for `CSc1cccc(NC(=O)NC2N=C(c3ccccc3F)c3cccc(C)c3N(CC(=O)N3CC4CCC(CC4)C3)C2=O)c1` (centres undefined) [1-[1-[2-(3-Aza-bicyclo[3.2.2]non-3-yl)-2-oxo-ethyl]-5-(2-fluoro-phenyl)-9-methyl-2-oxo-2,3-dihydro-1H-benzo[e][1,4]diazepin-3-yl]-3-(3-methylsulfanyl-phenyl)-urea], 0.37 nM.
In turn, `Cc1cccc(NC(=O)NC2N=C(c3ccccc3F)c3cccc(C)c3N(CC(=O)N3CC4CCC(CC4)C3)C2=O)c1` (centres undefined) [1-[1-[2-(3-Aza-bicyclo[3.2.2]non-3-yl)-2-oxo-ethyl]-5-(2-fluoro-phenyl)-9-methyl-2-oxo-2,3-dihydro-1H-benzo[e][1,4]diazepin-3-yl]-3-m-tolyl-urea] gave an IC50 of 0.47 nM.
For the compound `Cc1cccc2c1N(CC(=O)N1CC3CCC(CC3)C1)C(=O)C(NC(=O)Nc1cccc(C(=O)O)c1)N=C2c1ccccc1F` (centres undefined) [3-{3-[1-[2-(3-Aza-bicyclo[3.2.2]non-3-yl)-2-oxo-ethyl]-5-(2-fluoro-phenyl)-9-methyl-2-oxo-2,3-dihydro-1H-benzo[e][1,4]diazepin-3-yl]-ureido}-benzoic acid], the IC50 was 0.96 nM.
Same read-out and setting: in the case of `Cc1cccc(NC(=O)NC2N=C(c3ccccc3F)c3ccccc3N(CC(=O)N3CC4CCC(CC4)C3)C2=O)c1` (centres undefined) [FR-175985] it was 0.087 nM.

Molecular target in the next assay: not listed separately
In words: Inhibition of [125I]-Cholecystokinin-8 (125I-CCK-8) binding to Cholecystokinin type B receptor of guinea pig cerebral cortical membranes.
`Cc1cccc2c1N(CC(=O)N1CC3CCC(CC3)C1)C(=O)C(NC(=O)Nc1cccc(-c3nnn[nH]3)c1)N=C2c1ccccc1F` (centres undefined) [1-[1-[2-(3-Aza-bicyclo[3.2.2]non-3-yl)-2-oxo-ethyl]-5-(2-fluoro-phenyl)-9-methyl-2-oxo-2,3-dihydro-1H-benzo[e][1,4]diazepin-3-yl]-3-[3-(1H-tetrazol-5-yl)-phenyl]-urea] showed an IC50 of 6.4 nM. That is a single-digit nanomolar value.
